Source: patent US7105501B2, “Compositions with vascular damaging activity” (Angiogene Pharmaceuticals Ltd., priority 2000, dated 2006)

Tests used:
[1] = tested on: CaNT tumour vasculature; assay: Activity against tumour vasculature measured by fluorescent dye (Hoechst 33342 functional vascular volume); format: in vivo; details: CaNT tumour-bearing mice, 24 hours after drug treatment
Experimental: Activity Against Tumour Vasculature Measured by Fluorescent Dye.
Tumour functional vascular volume in CaNT tumour-bearing mice was measured using the fluorescent dye Hoechst 33342 according to the method of Smith et al (Brit J Cancer 57, 247-253, 1988). At least three animals were used in control and treated groups. The fluorescent dye was dissolved in saline at 6.25 mg/ml and injected intravenously at 10 mg/kg 24 hours after drug treatment. One minute later, animals were killed and tumours excised and frozen; 10 μm sections were cut at 3 different levels and observed under UV illumination using an Olympus microscope equipped with epifluorescence. Blood vessels were identified by their fluorescent outlines and vascular volume was quantified using a point scoring system based on that described by Chalkley, (J Natl Cancer Inst, 4, 47-53, 1943). All estimates were based on counting a minimum of 100 fields from sections cut at the 3 different levels. The salts of the invention were more efficacious than their dihydrogen phosphate parent compounds.

[2] = tested on: CaNT tumours; assay: Induction of tumour necrosis, CaNT tumours; format: in vivo, Mice; details: tumours excised after 24 h, mean score 1-10, control 2.0
Experimental: (§1) Induction of Tumour Necrosis
(§2) Mice bearing either CaNT or SaS tumours were treated with the test compound and tumours excised after 24 h, fixed in formalin, embedded in paraffin, sectioned and stained with haematoxylin and eosin. Sections were scored based on the estimated area of necrosis as follows:
(§3) Control tumours had mean scores of 2.0 (CaNT) and 1.0 (SaS). The salts of the invention were more efficacious than their dihydrogen phosphate parent compounds.

[3] = tested on: SaS tumours; assay: Induction of tumour necrosis, SaS tumours; format: in vivo, Mice; details: tumours excised after 24 h, mean score 1-10, control 1.0
Experimental: as §1, §2, §3

Row | SMILES | % Reduction in Vascular Volume ([1]; dose 100 mg/kg) | Necrosis score ([2]; dose 100 mg/kg) | Necrosis score ([3]; dose 500 mg/kg) | % Reduction in Vascular Volume ([1]; dose 50 mg/kg) | Necrosis score ([2]; dose 50 mg/kg) | Necrosis score ([3]; dose 100 mg/kg)
1 | COc1cc(/C=C\c2ccc(C)c(OP(=O)(O)O)c2)cc(OC)c1OC [(Z)-2-methyl-5-[2-(3,4-,5-trimethoxyphenyl)ethenyl]phenyl dihydrogen phosphate] | 28% | 5.3 | – | – | – | –
2 | COc1ccc(/C=C\c2cc(OC)c(OC)c(OC)c2)cc1OP(=O)(O)O [Combretastatin A4 phosphate, combretastatin A4 phosphate] | 26% | 5.0 | 1.4 | – | – | –
3 | COc1cc(/C=C\c2ccc(C)c(OP(=O)(O)O)c2)cc(OC)c1OC.NC(=N[N+](=O)[O-])NCCCC(N)C(=O)O [Example 2, (Z)-2-methyl-5-[2-(3,4,5-trimethoxyphenyl)ethenyl]phenyl (1-carboxy-4-N′-nitroguanidinobutylammonium) hydrogen phosphate] | – | – | – | 42% | 8.7 | 7.7
4 | COC(=O)C(N)CCCNC(N)=N[N+](=O)[O-].COc1cc(/C=C\c2ccc(C)c(OP(=O)(O)O)c2)cc(OC)c1OC [Example 5, (Z)-2-methyl-5-[2-(3,4,5-trimethoxyphenyl)ethenyl]phenyl (1-methoxycarbonyl-4-N′-nitroguanidinobutylammonium) hydrogen phosphate] | – | – | – | 86% | 10.0 | –
